The text below walks through data of US9173396B2, “Heterocyclic compounds as pesticides” (BAYER INTELLECTUAL PROPERTY GMBH, priority 2010, dated 2015).

Where two headings read alike, the source gives them in different places.

The test system of series [1] is greenhouse red spider mite (Tetranychus urticae). Nature of the series: Tetranychus test (OP-resistant/spray treatment). The format is in vivo. The following applies: application rate of 500 g/ha; after 6 days; bean leaf discs; 100% = all spider mites killed. The procedure: Tetranychus Test (OP-Resistant/Spray Treatment)
• Solvents: 78.0 parts by weight of acetone • 1.5 parts by weight of dimethylformamide • Emulsifier: 0.5 part by weight of alkylaryl polyglycol ether
To produce a suitable preparation of active compound, 1 part by weight of active compound is mixed with the stated amounts of solvent and emulsifier, and the concentrate is diluted with emulsifier-containing water to the desired concentration. Discs of bean leaves (Phaseolus vulgaris) which are infested by all stages of the greenhouse red spider mite (Tetranychus urticae) are sprayed with an active compound preparation of the desired concentration.
After 6 days, the effect in % is determined. 100% means that all of the spider mites have been killed; 0% means that none of the spider mites have been killed.

Series [2] concerns green peach aphid (Myzus persicae). Nature of the series: Myzus test (spray treatment). The format is in vivo. The conditions noted are these: foliar, 144 h, application rate of 500 g/ha, after 6 days, Chinese cabbage leaf discs, 100% = all aphids killed, read-out: effect in %. The method, then: Myzus Test (Spray Treatment)
• Solvents: 78 parts by weight of acetone • 1.5 parts by weight of dimethylformamide • Emulsifier: 0.5 part by weight of alkylaryl polyglycol ether
To produce a suitable preparation of active compound, 1 part by weight of active compound is mixed with the stated amounts of solvent and emulsifier, and the concentrate is diluted with emulsifier-containing water to the desired concentration. Discs of Chinese cabbage (Brassica pekinensis) infected by all stages of the green peach aphid (Myzus persicae) are sprayed with an active compound preparation of the desired concentration.
After 6 days, the effect in % is determined. 100% means that all of the aphids have been killed; 0% means that none of the aphids have been killed.

Where [3] appears, read: HCOOH (formic acid), logP, HCOOH, Table 1.
Setting [4] is: log P, HPLC-MS, eluent not stated.
Setting [5] is: HCOOH (formic acid), log P (HCOOH), HPLC-MS, HCOOH.

`c1cnc(-c2cccc(-c3cnc(-c4cccnc4)o3)n2)nc1` [Compound 7, 2-{6-[2-(Pyridin-3-yl)-1,3-oxazol-5-yl]pyridin-2-yl}pyrimidine] came in with an effect in % in series [1] of 100%. The pest or weed control at 500 g/ha in series [2] is 100%. For the same compound, the chromatographic logP in the series “log P by HPLC-MS” (setting [3]) and in “log P by HPLC-MS” (setting [4]) was 1.39 each time.
Turning to `c1cnc(-c2cccc(-n3cnc(-c4cccnc4)c3)n2)nc1` [Compound 3, 2-{6-[4-(Pyridin-3-yl)-1H-imidazol-1-yl]pyridin-2-yl}pyrimidine], the pest or weed control at 500 g/ha in series [2] is 100%. In addition, the results for the chromatographic logP in the series “log P by HPLC-MS” (setting [5]) and in “log P by HPLC-MS” (setting [3]) were 0.75 and 0.73, respectively.
In turn, `CN(C)C=CC(=O)c1cncc(F)c1` (mixture of isomers) [(E/Z)-3-(Dimethylamino)-1-(5-fluoro-3-pyridinyl)-2-propen-1-one] had a chromatographic logP in “log P by HPLC-MS” (setting [4]) of 0.91.
Take `c1cnc(-c2cccc(-n3ccc(-c4cccnc4)n3)n2)nc1` [Compound 13, 2-{6-[3-(Pyridin-3-yl)-1H-pyrazol-1-yl]pyridin-2-yl}pyrimidine]: the chromatographic logP in “log P by HPLC-MS” (setting [3]) and in the series “log P by HPLC-MS” (setting [4]) was 1.2 each time.
In turn, `C[Si](C)(C)C#Cc1cccc(-c2ncccn2)n1` [2-{6-[(Trimethylsilyl)ethynyl]pyridin-2-yl}pyrimidine] gave a chromatographic logP in “log P by HPLC-MS” of 3.11.
In turn, `Cc1nn(-c2cccnc2)c(=O)n1-c1cccc(-c2ncccn2)n1` [Compound 16, 5-methyl-2-(pyridin-3-yl)-4-[6-(pyrimidin-2-yl)pyridin-2-yl]-2,4-dihydro-3H-1,2,4-triazol-3-one] gave a chromatographic logP in “log P by HPLC-MS” (setting [3]) of 1.17.
Regarding `CCc1nn(-c2cccnc2)c(=O)n1N` [4-Amino-5-ethyl-2-(pyridin-3-yl)-2,4-dihydro-3H-1,2,4-triazol-3-one], the chromatographic logP in “log P by HPLC-MS” (setting [4]) worked out at 0.32.
The same measure, in the same setting: in the case of `O=C(O)c1cccc(-n2ccc(-c3cncc(F)c3)n2)n1` [6-[3-(5-Fluoro-3-pyridinyl)-1H-pyrazol-1-yl]-2-pyridinecarboxylate] it was 1.81.
The same measure, in the same setting: as for `CC(C)c1nn(-c2cccnc2)c(=O)n1N` [4-Amino-5-isopropyl-2-(pyridin-3-yl)-2,4-dihydro-3H-1,2,4-triazol-3-one], the figure is 0.85.
On the same count and under the same terms, as for `COC(=O)c1cccc(-n2ccc(-c3cncc(F)c3)n2)n1` [Methyl 6-[3-(5-fluoro-3-pyridinyl)-1H-pyrazol-1-yl]-2-pyridinecarboxylate], the figure is 1.07.
As for `Cc1nn(-c2cccnc2)c(=O)[nH]1` [5-Methyl-2-(pyridin-3-yl)-2,4-dihydro-3H-1,2,4-triazol-3-one], in the series “log P by HPLC-MS” (setting [4]), the chromatographic logP was -0.21.
As to `CN(C)S(=O)(=O)NC(=O)c1cccc(-n2ccc(-c3cncc(F)c3)n2)n1` [Compound 22, 6-[3-(5-Fluoro-3-pyridinyl)-1H-pyrazol-1-yl]-N-[(dimethylamino)sulfonyl]-2-pyridinecarboxamide], the chromatographic logP worked out at 2.61 in “log P by HPLC-MS” (HPLC-MS, log P, eluent not stated) and 2.61 in “log P by HPLC-MS” (HPLC-MS, logP, HCOOH, Table 2).
With `FC(F)(F)c1cccc(-n2cnc(-c3cccnc3)n2)n1` [Compound 6, 2-[3-(Pyridin-3-yl)-1H-1,2,4-triazol-1-yl]-6-(trifluoromethyl)pyridine], the pest or weed control at 500 g/ha in series [2] was determined as 100%. In addition, the chromatographic logP in “log P by HPLC-MS” (setting [3]) and in the series “log P by HPLC-MS” (setting [4]) was 2.11 each time.
Regarding `Brc1cccc(-c2cc(-c3cccnc3)no2)n1` [Compound 1, 2-Bromo-6-[3-(pyridin-3-yl)-1,2-oxazol-5-yl]pyridine], in series [2], the pest or weed control at 500 g/ha came to 100%. Besides, the chromatographic logP in the series “log P by HPLC-MS” (setting [5]) and in the series “log P by HPLC-MS” (setting [3]) was 2.23 each time.
Regarding `c1cnc(-c2cccc(-n3cc(-c4cccnc4)cn3)n2)nc1` [Compound 9, 2-{6-[4-(Pyridin-3-yl)-1H-pyrazol-1-yl]pyridin-2-yl}pyrimidine], the pest or weed control at 500 g/ha in series [2] is 100%. Besides, the chromatographic logP in the series “log P by HPLC-MS” (setting [3]) and in the series “log P by HPLC-MS” (setting [4]) was 1.04 throughout.
In the series “log P by HPLC-MS” (setting [4]), `CC1(C)OB(c2coc(-c3cccnc3)c2)OC1(C)C` [3-[4-(4,4,5,5-Tetramethyl-1,3,2-dioxaborolan-2-yl)-2-furyl]pyridine] showed a chromatographic logP of 2.25.
Regarding `c1cnc(-c2cccc(-c3ncc(-c4cccnc4)s3)n2)nc1` [Compound 17, 2-{6-[5-(Pyridin-3-yl)-1,3-thiazol-2-yl]pyridin-2-yl}pyrimidine], the pest or weed control at 500 g/ha in series [2] is 100%. The chromatographic logP in “log P by HPLC-MS” (setting [3]) and in “log P by HPLC-MS” (setting [4]) was 1.79 in each case.
In “log P by HPLC-MS” (setting [4]), `c1cnc(-c2cccc(-c3nccs3)n2)nc1` [2-[6-(1,3-Thiazol-2-yl)pyridin-2-yl]pyrimidine] gave a chromatographic logP of 1.43.
`Cn1nc(-c2cccc(-c3ncccn3)n2)cc1-c1cccnc1` [Compound 2, 2-{6-[1-Methyl-5-(pyridin-3-yl)-1H-pyrazol-3-yl]pyridin-2-yl}pyrimidine]: in series [2], the pest or weed control at 500 g/ha is 100%. Also, the chromatographic logP in “log P by HPLC-MS” (setting [5]) and in the series “log P by HPLC-MS” (setting [3]) was 1.26 each time.
For `Fc1cncc(-c2cc[nH]n2)c1` [3-(5-fluoro-3-pyridinyl)-1H-pyrazole, 3-(5-Fluoro-3-pyridinyl)-1H-pyrazole], the chromatographic logP in the series “log P by HPLC-MS” (setting [4]) turned out to be 0.92.
On to `c1cnc(-c2cccc(-c3cn(-c4cccnc4)nn3)n2)nc1` [Compound 10, 2-{6-[1-(Pyridin-3-yl)-1H-1,2,3-triazol-4-yl]pyridin-2-yl}pyrimidine], for which the pest or weed control at 500 g/ha in series [2] turned out to be 100%. In addition, the chromatographic logP in “log P by HPLC-MS” (setting [3]) and in the series “log P by HPLC-MS” (setting [4]) was 1.39 in each case.
Regarding `CCc1nn(-c2cccnc2)c(=O)n1-c1cccc(-c2ncccn2)n1` [Compound 15, 5-Ethyl-2-(pyridin-3-yl)-4-[6-(pyrimidin-2-yl)pyridin-2-yl]-2,4-dihydro-3H-1,2,4-triazol-3-one], the chromatographic logP in “log P by HPLC-MS” (setting [3]) was 1.48.
With `c1cnc(-c2cccc(-c3coc(-c4cccnc4)c3)n2)nc1` [Compound 11, 2-{6-[5-(Pyridin-3-yl)-3-furyl]pyridin-2-yl}pyrimidine], the chromatographic logP in the series “log P by HPLC-MS” (setting [3]) and in “log P by HPLC-MS” (setting [4]) was 1.26 in each case.
In “log P by HPLC-MS” (HCOOH (formic acid)), `Cn1nc(-c2cccc(Br)n2)cc1-c1cccnc1` [2-Bromo-6-[1-methyl-5-(pyridin-3-yl)-1H-pyrazol-3-yl]pyridine] had a chromatographic logP of 1.94.
For the compound `Fc1cncc(-c2cnc(-c3cccc(-c4ncccn4)n3)s2)c1` [Compound 21, 2-{6-[5-(5-Fluoropyridin-3-yl)-1,3-thiazol-2-yl]pyridin-2-yl}pyrimidine], the pest or weed control at 500 g/ha in series [2] was 90%. Also, the chromatographic logP in “log P by HPLC-MS” (HPLC-MS, logP, HCOOH, Table 2) turned out to be 2.13; in “log P by HPLC-MS” (setting [4]) it was 2.13.
`C#Cc1cccc(-c2ncccn2)n1` [2-(6-ethynylpyridin-2-yl)pyrimidine, 2-(6-Ethynylpyridin-2-yl)pyrimidine] registered a chromatographic logP in “log P by HPLC-MS” (setting [4]) of 1.05.
As to `CC(C)c1nn(-c2cccnc2)c(=O)n1-c1cccc(-c2ncccn2)n1` [Compound 14, 5-Isopropyl-2-(pyridin-3-yl)-4-[6-(pyrimidin-2-yl)pyridin-2-yl]-2,4-dihydro-3H-1,2,4-triazol-3-one], the chromatographic logP in the series “log P by HPLC-MS” (setting [3]) and in the series “log P by HPLC-MS” (setting [4]) was 1.77 in each case.
`CC(C)c1nn(-c2cccnc2)c(=O)[nH]1` [5-Isopropyl-2-(pyridin-3-yl)-2,4-dihydro-3H-1,2,4-triazol-3-one] yielded a chromatographic logP in the series “log P by HPLC-MS” (setting [4]) of 0.71.
On the same count and under the same terms, in the case of `CCc1nn(-c2cccnc2)c(=O)[nH]1` [5-Ethyl-2-(pyridin-3-yl)-2,4-dihydro-3H-1,2,4-triazol-3-one] it was 0.3.

For orientation: chromatographic logP means lipophilicity estimated from chromatographic retention. Low values mean lower lipophilicity, high ones higher lipophilicity.
